Measurements taken from the supplement of paper PMC10307832.

Key:
Assay in all cases: relative viability (nuclei count vs DMSO), 5 days (fraction); higher = more cells survive
[1] = compound: C[C@@]1(C(=O)Nc2ccc(F)nc2)CCCN1c1nc(Nc2cc(C3CC3)n[nH]2)c2cccn2n1 + Cc1cc(Nc2cc(N3CCN(C)CC3)nc(Sc3ccc(NC(=O)C4CC4)cc3)n2)n[nH]1 [Tozasertib] (partner 0.1 µM)
In short: (§1)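 Nuclei were stained with Hoechst during a one-step fixation (final 0.05% Triton X-100, 1% formaldehyde, 1 ug/ml Hoechst) carried out 5 days after dosing, then counted on 4× images. The cells, lung cancer lines in 1536-well plates, had been dosed by pin tool the day after seeding with one drug alone or a fixed anchor-drug dose plus five library-drug doses (not always all listed) in √10 steps. Relative viability is the nuclei count in treated wells divided by that in vehicle wells, and each value is the median of duplicate plates.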

[2] = compound: C[C@@]1(C(=O)Nc2ccc(F)nc2)CCCN1c1nc(Nc2cc(C3CC3)n[nH]2)c2cccn2n1 + Nc1ncn([C@H]2C[C@H](O)[C@@H](CO)O2)c(=O)n1 [Decitabine] (partner 2 µM)
In short: as §1

[3] = compound: CC1(C)CNc2cc(NC(=O)c3cccnc3NCc3ccncc3)ccc21 [Motesanib] + CS(=O)(=O)CCNCc1ccc(-c2ccc3ncnc(Nc4ccc(OCc5cccc(F)c5)c(Cl)c4)c3c2)o1 [Lapatinib] (partner 2 µM)
In short: as §1

[4] = compound: CC1(C)CNc2cc(NC(=O)c3cccnc3NCc3ccncc3)ccc21 [Motesanib] + O=C(c1cc(Cc2n[nH]c(=O)c3ccccc23)ccc1F)N1CCN(C(=O)C2CC2)CC1 [Olaparib] (partner 8 µM)
In short: as §1

Cell Line: NCI-H322M
- relative viability ([1]; first compound 0.04 µM): 0.464
- relative viability ([1]; first compound 0.1265 µM): 0.347
- relative viability ([1]; first compound 0.4 µM): 0.361
- relative viability ([1]; first compound 1.265 µM): 0.391
- relative viability ([2]; first compound 0.04 µM): 0.658
- relative viability ([2]; first compound 0.1265 µM): 0.533
- relative viability ([2]; first compound 0.4 µM): 0.494
- relative viability ([2]; first compound 1.265 µM): 0.547
- relative viability ([3]; first compound 0.01 µM): 0.553
- relative viability ([3]; first compound 0.03162 µM): 0.372
- relative viability ([3]; first compound 0.1 µM): 0.696
- relative viability ([3]; first compound 0.3162 µM): 0.587
- relative viability ([3]; first compound 1 µM): 0.566
- relative viability ([4]; first compound 0.01 µM): 0.82
- relative viability ([4]; first compound 0.03162 µM): 0.762
- relative viability ([4]; first compound 0.1 µM): 0.886
- relative viability ([4]; first compound 0.3162 µM): 0.803
- relative viability ([4]; first compound 1 µM): 0.812

Cell Line: NCI-H358
- relative viability ([1]; first compound 0.04 µM): 0.0856
- relative viability ([1]; first compound 0.1265 µM): 0.0931
- relative viability ([1]; first compound 0.4 µM): 0.0786
- relative viability ([1]; first compound 1.265 µM): 0.0689
- relative viability ([2]; first compound 0.04 µM): 0.212
- relative viability ([2]; first compound 0.1265 µM): 0.146
- relative viability ([2]; first compound 0.4 µM): 0.165
- relative viability ([2]; first compound 1.265 µM): 0.116
- relative viability ([3]; first compound 0.01 µM): 0.489
- relative viability ([3]; first compound 0.03162 µM): 0.472
- relative viability ([3]; first compound 0.1 µM): 0.424
- relative viability ([3]; first compound 0.3162 µM): 0.555
- relative viability ([3]; first compound 1 µM): 0.463
- relative viability ([4]; first compound 0.01 µM): 0.507
- relative viability ([4]; first compound 0.03162 µM): 0.652
- relative viability ([4]; first compound 0.1 µM): 0.626
- relative viability ([4]; first compound 0.3162 µM): 0.658
- relative viability ([4]; first compound 1 µM): 0.633

Cell Line: NCI-H460
- relative viability ([1]; first compound 0.04 µM): 0.525
- relative viability ([1]; first compound 0.1265 µM): 0.487
- relative viability ([1]; first compound 0.4 µM): 0.26
- relative viability ([1]; first compound 1.265 µM): 0.136
- relative viability ([2]; first compound 0.04 µM): 0.506
- relative viability ([2]; first compound 0.1265 µM): 0.446
- relative viability ([2]; first compound 0.4 µM): 0.413
- relative viability ([2]; first compound 1.265 µM): 0.346
- relative viability ([3]; first compound 0.01 µM): 0.961
- relative viability ([3]; first compound 0.03162 µM): 0.779
- relative viability ([3]; first compound 0.1 µM): 0.892
- relative viability ([3]; first compound 0.3162 µM): 0.974
- relative viability ([3]; first compound 1 µM): 0.864
- relative viability ([4]; first compound 0.01 µM): 0.413
- relative viability ([4]; first compound 0.03162 µM): 0.396
- relative viability ([4]; first compound 0.1 µM): 0.484
- relative viability ([4]; first compound 0.3162 µM): 0.446
- relative viability ([4]; first compound 1 µM): 0.402

Cell Line: NCI-H520
- relative viability ([1]; first compound 0.04 µM): 0.48
- relative viability ([1]; first compound 0.4 µM): 0.442
- relative viability ([1]; first compound 1.265 µM): 0.423
- relative viability ([2]; first compound 0.04 µM): 0.498
- relative viability ([2]; first compound 0.1265 µM): 0.493
- relative viability ([2]; first compound 0.4 µM): 0.416
- relative viability ([2]; first compound 1.265 µM): 0.491
- relative viability ([3]; first compound 0.01 µM): 0.714
- relative viability ([3]; first compound 0.03162 µM): 0.823
- relative viability ([3]; first compound 0.1 µM): 0.877
- relative viability ([3]; first compound 0.3162 µM): 0.882
- relative viability ([3]; first compound 1 µM): 0.899
- relative viability ([4]; first compound 0.01 µM): 0.319
- relative viability ([4]; first compound 0.03162 µM): 0.32
- relative viability ([4]; first compound 0.1 µM): 0.294
- relative viability ([4]; first compound 0.3162 µM): 0.297
- relative viability ([4]; first compound 1 µM): 0.392

Cell Line: NCI-H596
- relative viability ([1]; first compound 0.04 µM): 0.883
- relative viability ([1]; first compound 0.1265 µM): 0.748
- relative viability ([1]; first compound 0.4 µM): 0.683
- relative viability ([1]; first compound 1.265 µM): 0.71
- relative viability ([2]; first compound 0.04 µM): 1.08
- relative viability ([2]; first compound 0.1265 µM): 0.977
- relative viability ([2]; first compound 0.4 µM): 0.96
- relative viability ([2]; first compound 1.265 µM): 0.912
- relative viability ([3]; first compound 0.01 µM): 1.08
- relative viability ([3]; first compound 0.03162 µM): 1.04
- relative viability ([3]; first compound 0.1 µM): 1.06
- relative viability ([3]; first compound 0.3162 µM): 1.16
- relative viability ([3]; first compound 1 µM): 1.18
- relative viability ([4]; first compound 0.01 µM): 0.792
- relative viability ([4]; first compound 0.03162 µM): 0.623
- relative viability ([4]; first compound 0.1 µM): 0.648
- relative viability ([4]; first compound 0.3162 µM): 0.677
- relative viability ([4]; first compound 1 µM): 0.646

Cell Line: NCI-H647
- relative viability ([1]; first compound 0.04 µM): 0.543
- relative viability ([1]; first compound 0.1265 µM): 0.217
- relative viability ([1]; first compound 0.4 µM): 0.159
- relative viability ([1]; first compound 1.265 µM): 0.123
- relative viability ([2]; first compound 0.04 µM): 0.504
- relative viability ([2]; first compound 0.1265 µM): 0.312
- relative viability ([2]; first compound 0.4 µM): 0.368
- relative viability ([2]; first compound 1.265 µM): 0.421
- relative viability ([3]; first compound 0.01 µM): 0.995
- relative viability ([3]; first compound 0.03162 µM): 1
- relative viability ([3]; first compound 0.1 µM): 1.11
- relative viability ([3]; first compound 0.3162 µM): 1.19
- relative viability ([3]; first compound 1 µM): 1.09
- relative viability ([4]; first compound 0.01 µM): 0.48
- relative viability ([4]; first compound 0.03162 µM): 0.638
- relative viability ([4]; first compound 0.1 µM): 0.496
- relative viability ([4]; first compound 0.3162 µM): 0.629
- relative viability ([4]; first compound 1 µM): 0.611

Cell Line: NCI-H650
- relative viability ([1]; first compound 0.04 µM): 0.714
- relative viability ([1]; first compound 0.1265 µM): 0.479
- relative viability ([1]; first compound 0.4 µM): 0.523
- relative viability ([1]; first compound 1.265 µM): 0.398
- relative viability ([2]; first compound 0.04 µM): 0.291
- relative viability ([2]; first compound 0.1265 µM): 0.311
- relative viability ([2]; first compound 0.4 µM): 0.305
- relative viability ([2]; first compound 1.265 µM): 0.29
- relative viability ([3]; first compound 0.01 µM): 0.815
- relative viability ([3]; first compound 0.03162 µM): 0.932
- relative viability ([3]; first compound 0.1 µM): 0.897
- relative viability ([3]; first compound 0.3162 µM): 1.13
- relative viability ([3]; first compound 1 µM): 0.888
- relative viability ([4]; first compound 0.01 µM): 0.446
- relative viability ([4]; first compound 0.03162 µM): 0.382
- relative viability ([4]; first compound 0.1 µM): 0.42
- relative viability ([4]; first compound 0.3162 µM): 0.39
- relative viability ([4]; first compound 1 µM): 0.426

Cell Line: NCI-H661
- relative viability ([1]; first compound 0.04 µM): 0.37
- relative viability ([1]; first compound 0.1265 µM): 0.345
- relative viability ([1]; first compound 0.4 µM): 0.369
- relative viability ([1]; first compound 1.265 µM): 0.338
- relative viability ([2]; first compound 0.04 µM): 0.528
- relative viability ([2]; first compound 0.1265 µM): 0.514
- relative viability ([2]; first compound 0.4 µM): 0.54
- relative viability ([2]; first compound 1.265 µM): 0.547
- relative viability ([3]; first compound 0.01 µM): 0.429
- relative viability ([3]; first compound 0.03162 µM): 0.563
- relative viability ([3]; first compound 0.1 µM): 0.511
- relative viability ([3]; first compound 0.3162 µM): 0.386
- relative viability ([3]; first compound 1 µM): 0.49
- relative viability ([4]; first compound 0.01 µM): 0.748
- relative viability ([4]; first compound 0.03162 µM): 0.76
- relative viability ([4]; first compound 0.1 µM): 0.784
- relative viability ([4]; first compound 0.3162 µM): 0.749
- relative viability ([4]; first compound 1 µM): 0.774

Cell Line: NCI-H727
- relative viability ([1]; first compound 0.04 µM): 0.525
- relative viability ([1]; first compound 0.1265 µM): 0.355
- relative viability ([1]; first compound 0.4 µM): 0.352
- relative viability ([1]; first compound 1.265 µM): 0.379
- relative viability ([2]; first compound 0.04 µM): 0.8
- relative viability ([2]; first compound 0.1265 µM): 0.636
- relative viability ([2]; first compound 0.4 µM): 0.529
- relative viability ([2]; first compound 1.265 µM): 0.362
- relative viability ([3]; first compound 0.01 µM): 0.821
- relative viability ([3]; first compound 0.03162 µM): 0.902
- relative viability ([3]; first compound 0.1 µM): 0.858
- relative viability ([3]; first compound 0.3162 µM): 1.13
- relative viability ([3]; first compound 1 µM): 0.787
- relative viability ([4]; first compound 0.01 µM): 0.937
- relative viability ([4]; first compound 0.03162 µM): 0.614
- relative viability ([4]; first compound 0.1 µM): 0.761
- relative viability ([4]; first compound 0.3162 µM): 0.779
- relative viability ([4]; first compound 1 µM): 0.6
